Laboratory results published in PubChem BioAssay (NCI).
Where “and” joins values, the source holds several entries; their conditions need not be identical. Identical values can stand only once.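 Where inhibition never reached the appropriate level, the endpoint shown equals the highest concentration tested. Otherwise, values were interpolated linearly from a five-concentration, 48-hour dose response in 96-well plates. Here, GI50 denotes the concentration required for 50% inhibition of growth. The concentration for full growth arrest is given as TGI.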

Test system: MDA-MB-468 breast
Test: NCI tumour cell line growth inhibition, 48 h

Going from `COc1ccc(/C(C)=N/NC(=O)CSc2nc3ccccc3c(=O)n2CCc2ccc(S(N)(=O)=O)cc2)cc1` to `O=C(NCCc1ccccc1)Nc1ccc2cc3ccc(NC(=O)NCCc4ccccc4)cc3nc2c1`, the GI50 falls from 2.3 µM to 0.81 µM (2.8-fold).

Going from `O=C(Nc1cccc(-n2cc(-c3ccncc3)c(-c3ccc(O)c(Cl)c3)n2)c1)c1ccc2c(c1)OCCO2` to `COc1cc(Cl)cc(-c2nn(-c3cccc(NC(=O)Nc4cccc(C(F)(F)F)c4)c3)cc2-c2ccncc2)c1`, the GI50 falls from 6.88 µM to 1.05 µM (6.6-fold).

`CCCOc1cc2ccccc2cc1C(=O)Nc1nc(NC)c2c(ccc3nccc32)[nH]1` and `NCCCOc1cc2ccccc2cc1C(=O)Nc1ccc(Cl)cc1OC(=O)c1cc2ccccc2cc1OCCCN` are within 1.5-fold of each other in GI50: 0.275 µM for the first, 0.221 µM for the second.

First: CO[C@@H]1CCN(c2nccc(Nc3cc4c(C(C)C)ccc(N5CC(CS(C)(=O)=O)[C@H]5C)c4cn3)n2)C[C@@H]1F (stereo partly drawn)
Second: Cc1ccc(C(=O)NCCCOc2ccc(N3C(N)=NC(N)=NC3(C)C)cc2Cl)cc1S(=O)(=O)F
The GI50 of the first is lower: 0.544 µM for the first, > 100 µM for the second.

First: CN(C)C(=O)OCc1nc2c(N3CCOCC3)nc(-c3ccccc3)nc2n1C
Second: CC[C@@]1(OC(=O)CN(C)C)C(=O)OCc2c1cc1n(c2=O)Cc2cc3c(N)cccc3nc2-1
The GI50 of the first is 45-fold higher: 0.573 µM for the first, 0.0128 µM for the second.

`Cc1ccc(S(=O)(=O)OCC#CCOS(=O)(=O)c2ccc(C)cc2)cc1` and `Cc1ccc(Nc2cc(Cl)c([N+](=O)[O-])cc2[N+](=O)[O-])cc1` are within 1.5-fold of each other in GI50: 1.85 µM for the first, 1.8 µM for the second.

Compared with `COc1ccc(C(C)c2cc(OC)c(OC)c(OC)c2)cc1` (stereo not drawn), `COc1cccc(/C=C/c2nc3c(cnn3-c3ccccc3)c(=O)[nH]2)c1` is 7.1-fold higher in GI50: 0.0945 µM for the first, 0.67 µM for the second.

First: NCCCCCNc1noc(Cc2c[nH]c3cc(Br)ccc23)n1
Second: CCOC(=O)C(Cc1c[nH]c2cc(N(CCO)CCO)ccc12)(NC(C)=O)C(=O)OCC
The GI50 of the first is 370-fold lower: 2.13 µM for the first, 793 µM for the second.

First: N#Cc1cnc2cc(OC[C@@H](O)CO)c(NC(=O)C3CCCC3)cc2c1Nc1ccc(OCc2cccc(F)c2)c(Cl)c1
Second: CNC(=O)c1cc(Oc2cccc3nc(NC(=O)Nc4cc(C(F)(F)F)cc(C(F)(F)F)c4)ccc23)ccn1
The GI50 of the first is 5.6-fold lower: 0.611 µM for the first, 3.4 µM for the second.

First: O=C1Nc2cc(-c3cccc(O)c3)ccc2/C1=C/c1ccc[nH]1
Second: O=[N+]([O-])c1cccc(-c2nc(-c3ccc(Cl)cc3Cl)cn2-c2ccccc2)c1
The GI50 of the first is 6.4-fold lower: 0.245 µM for the first, 1.57 µM for the second.

First: O=C(NCCN1CCCC1)c1ccc(-c2nc3ccc4[nH]ncc4c3c3c2CCCC3)cc1
Second: O=C1CC[C@H](N2Cc3c(OCc4ccc(CN5CCOCC5)cc4)cccc3C2=O)C(=O)N1
The GI50 of the first is lower: 0.356 µM for the first, > 100 µM for the second.

First: Nc1c(C(=O)Nc2ccccn2)sc2nc3c(cc12)C(O)CCC3 (stereo not drawn)
Second: Cc1ccc(C(=O)c2sc3nc4c(cc3c2N)CCCC4)c(C)c1
The GI50 of the first is 5.1-fold higher: 1.08 µM for the first, 0.21 µM for the second.

Compared with `O=C(CSCC(=O)N/N=C/c1ccccc1O)N/N=C\c1ccccc1O`, `O=C(O)c1cc2ccccc2c2c3c(ccc12)OCO3` is 120-fold higher in GI50: 1.26 µM for the first, 153 µM for the second.

First: Cc1cc(-c2nnc(/C=C/c3ccc4c(c3)OCO4)o2)n[nH]1
Second: Cc1nc(-c2cc3ccccc3oc2=O)ccc1C(=O)/C=C/c1ccccn1
The GI50 of the first is lower: 10.9 µM for the first, > 100 µM for the second.

First: O=C1/C=C/[C@@H](O)[C@@H]2C[C@@H](O)C[C@H]2/C=C/CCC[C@H](CCc2ccc3ncccc3c2)O1
Second: C[C@]12CC[C@@H]3c4ccc(O)cc4CC[C@H]3[C@@H]1CC[C@@H]2NS(=O)(=O)c1ccc(Br)cc1
The GI50 of the first is 54-fold lower: 0.0656 µM for the first, 3.57 µM for the second.

Going from `N#Cc1ccc(-c2c(-c3ncn[nH]3)sc(N3CCOCC3)c2C#N)c(F)c1` to `O=c1c2cc(-c3ccc(F)cc3F)ccc2n(Nc2ccccc2)c(=O)n1-c1cccc(C(F)(F)F)c1`, the GI50 rises from 0.242 µM to 1.99 µM (8.2-fold).

First: Clc1ccc(C2CC(c3cccc(Nc4ccncc4)c3)=NN2c2ccc(Cl)cc2)cc1 (stereo not drawn)
Second: O=S(=O)(NCCNc1nccc(-c2c(-c3ccc(F)c(O)c3)nc3sccn23)n1)c1ccc(Cl)cc1
The GI50 of the first is 1.6-fold lower: 1.4 µM for the first, 2.17 µM for the second.

`CC(C)(C)c1cc(C(=O)Nc2ccc(C(=O)NCCN)cc2)cc(C(C)(C)C)c1` and `COc1cccc(-c2nn(-c3ccccc3)cc2-c2ccnc(NCCCNC(=O)c3cccc(C(F)(F)F)c3)c2)c1` are within 1.5-fold of each other in GI50: 1.82 µM for the first, 1.95 µM for the second.

Compared with `Cc1cc(C(=O)/C=C/c2ccc[nH]2)ccc1-n1ccc(C(F)(F)F)n1`, `COCCOCCOCc1n(Cc2ccc3ccccc3c2)c2ccccc2[n+]1Cc1ccc2ccccc2c1` is 34-fold lower in GI50: 3.76 µM for the first, 0.11 µM for the second.

Compared with `C/C=C/C/C=C/[C@H](C)C[C@H](O)[C@@H]1C[C@@H]2O[C@H]2/C=C/[C@@H]2OC(C)(C)O[C@H]2/C=C/C[C@H](C)CC(=O)O1`, `CCCCCCCCCCCCCCCCCCNCc1ccc(Cl)cc1` is 2.2-fold lower in GI50: 17.3 µM for the first, 7.87 µM for the second.

Going from `COc1ccc(/C(C)=N/NC(=O)CSc2nc3ccccc3c(=O)n2CCc2ccc(S(N)(=O)=O)cc2)cc1` to `O=C(NCCc1ccccc1)Nc1ccc2cc3ccc(NC(=O)NCCc4ccccc4)cc3nc2c1`, the TGI falls from 4.85 µM to 2.27 µM (2.1-fold).

Going from `O=C(Nc1cccc(-n2cc(-c3ccncc3)c(-c3ccc(O)c(Cl)c3)n2)c1)c1ccc2c(c1)OCCO2` to `COc1cc(Cl)cc(-c2nn(-c3cccc(NC(=O)Nc4cccc(C(F)(F)F)c4)c3)cc2-c2ccncc2)c1`, the TGI falls from > 100 µM to 4.99 µM.

First: CCCOc1cc2ccccc2cc1C(=O)Nc1nc(NC)c2c(ccc3nccc32)[nH]1
Second: NCCCOc1cc2ccccc2cc1C(=O)Nc1ccc(Cl)cc1OC(=O)c1cc2ccccc2cc1OCCCN
The TGI of the first is 1.8-fold higher: 1.01 µM for the first, 0.573 µM for the second.

First: CN1CCN(c2ccc(OC(F)(F)F)c(Nc3ncc4c(n3)-c3c(c(C(N)=O)nn3CCO)CC4)c2)CC1
Second: O=C(NCCN1CCCC1)c1ccc(-c2nc3ccc4[nH]ncc4c3c3c2CCCC3)cc1
The TGI of the first is 8.3-fold higher: 11.5 µM for the first, 1.38 µM for the second.

Compared with `CO[C@@H]1CCN(c2nccc(Nc3cc4c(C(C)C)ccc(N5CC(CS(C)(=O)=O)[C@H]5C)c4cn3)n2)C[C@@H]1F` (stereo partly drawn), `Cc1ccc(C(=O)NCCCOc2ccc(N3C(N)=NC(N)=NC3(C)C)cc2Cl)cc1S(=O)(=O)F` is higher in TGI: 4.11 µM for the first, > 100 µM for the second.

First: CN(C)C(=O)OCc1nc2c(N3CCOCC3)nc(-c3ccccc3)nc2n1C
Second: CC[C@@]1(OC(=O)CN(C)C)C(=O)OCc2c1cc1n(c2=O)Cc2cc3c(N)cccc3nc2-1
The TGI of the first is 52-fold higher: 1.82 µM for the first, 0.035 µM for the second.

`Cc1ccc(S(=O)(=O)OCC#CCOS(=O)(=O)c2ccc(C)cc2)cc1` and `Cc1ccc(Nc2cc(Cl)c([N+](=O)[O-])cc2[N+](=O)[O-])cc1` are within 1.5-fold of each other in TGI: 3.88 µM for the first, 3.58 µM for the second.

`COc1ccc(C(C)c2cc(OC)c(OC)c(OC)c2)cc1` (stereo not drawn) and `COc1cccc(/C=C/c2nc3c(cnn3-c3ccccc3)c(=O)[nH]2)c1` cannot be ordered by TGI: > 50 µM for the first, > 100 µM for the second.

Going from `NCCCCCNc1noc(Cc2c[nH]c3cc(Br)ccc23)n1` to `CCOC(=O)C(Cc1c[nH]c2cc(N(CCO)CCO)ccc12)(NC(C)=O)C(=O)OCC`, the TGI rises from 5.15 µM to > 1000 µM.

Going from `N#Cc1cnc2cc(OC[C@@H](O)CO)c(NC(=O)C3CCCC3)cc2c1Nc1ccc(OCc2cccc(F)c2)c(Cl)c1` to `CNC(=O)c1cc(Oc2cccc3nc(NC(=O)Nc4cc(C(F)(F)F)cc(C(F)(F)F)c4)ccc23)ccn1`, the TGI rises from 2.5 µM to 26.6 µM (11-fold).

Compared with `O=C1Nc2cc(-c3cccc(O)c3)ccc2/C1=C/c1ccc[nH]1`, `O=[N+]([O-])c1cccc(-c2nc(-c3ccc(Cl)cc3Cl)cn2-c2ccccc2)c1` is 8.4-fold higher in TGI: 0.805 µM for the first, 6.75 µM for the second.

Going from `Nc1c(C(=O)Nc2ccccn2)sc2nc3c(cc12)C(O)CCC3` (stereo not drawn) to `Cc1ccc(C(=O)c2sc3nc4c(cc3c2N)CCCC4)c(C)c1`, the TGI falls from > 50 µM to 8.42 µM.

First: O=C(CSCC(=O)N/N=C/c1ccccc1O)N/N=C\c1ccccc1O
Second: O=C(O)c1cc2ccccc2c2c3c(ccc12)OCO3
The TGI of the first is 79-fold lower: 5.85 µM for the first, 460 µM for the second.

Going from `Cc1cc(-c2nnc(/C=C/c3ccc4c(c3)OCO4)o2)n[nH]1` to `Cc1nc(-c2cc3ccccc3oc2=O)ccc1C(=O)/C=C/c1ccccn1`, the TGI rises from 32.7 µM to > 100 µM.

Going from `O=C1/C=C/[C@@H](O)[C@@H]2C[C@@H](O)C[C@H]2/C=C/CCC[C@H](CCc2ccc3ncccc3c2)O1` to `C[C@]12CC[C@@H]3c4ccc(O)cc4CC[C@H]3[C@@H]1CC[C@@H]2NS(=O)(=O)c1ccc(Br)cc1`, the TGI rises from 0.495 µM to 11.2 µM (23-fold).

First: N#Cc1ccc(-c2c(-c3ncn[nH]3)sc(N3CCOCC3)c2C#N)c(F)c1
Second: O=C1CC[C@H](N2Cc3c(OCc4ccc(CN5CCOCC5)cc4)cccc3C2=O)C(=O)N1
The TGI of the first is lower: 1.55 µM for the first, > 100 µM for the second.

First: Clc1ccc(C2CC(c3cccc(Nc4ccncc4)c3)=NN2c2ccc(Cl)cc2)cc1 (stereo not drawn)
Second: O=c1c2cc(-c3ccc(F)cc3F)ccc2n(Nc2ccccc2)c(=O)n1-c1cccc(C(F)(F)F)c1
The TGI of the first is 1.9-fold lower: 2.92 µM for the first, 5.57 µM for the second.

First: CC(C)(C)c1cc(C(=O)Nc2ccc(C(=O)NCCN)cc2)cc(C(C)(C)C)c1
Second: COc1cccc(-c2nn(-c3ccccc3)cc2-c2ccnc(NCCCNC(=O)c3cccc(C(F)(F)F)c3)c2)c1
The TGI of the first is 2-fold lower: 3.6 µM for the first, 7.37 µM for the second.

Going from `Cc1cc(C(=O)/C=C/c2ccc[nH]2)ccc1-n1ccc(C(F)(F)F)n1` to `O=S(=O)(NCCNc1nccc(-c2c(-c3ccc(F)c(O)c3)nc3sccn23)n1)c1ccc(Cl)cc1`, the TGI rises from 34.9 µM to > 50 µM.

Compared with `COCCOCCOCc1n(Cc2ccc3ccccc3c2)c2ccccc2[n+]1Cc1ccc2ccccc2c1`, `CCCCCCCCCCCCCCCCCCNCc1ccc(Cl)cc1` is 38-fold higher in TGI: 0.659 µM for the first, 24.8 µM for the second.

`C/C=C/C/C=C/[C@H](C)C[C@H](O)[C@@H]1C[C@@H]2O[C@H]2/C=C/[C@@H]2OC(C)(C)O[C@H]2/C=C/C[C@H](C)CC(=O)O1` was tested, and the TGI was > 100 µM.

`CN1CCN(c2ccc(OC(F)(F)F)c(Nc3ncc4c(n3)-c3c(c(C(N)=O)nn3CCO)CC4)c2)CC1` was tested, and the GI50 was < 0.01 µM and 0.032 µM.
For `CCOC(=O)Nc1nc2ccccc2[nH]1`, the GI50 was 2.75 µM and 2.07 µM.
With `CS(=O)(=O)Nc1cc(-c2ccc3ncnc(Nc4ccc(F)c(Cl)c4)c3c2)cnc1Cl` the GI50 was 0.236 µM and 0.21 µM.
`Nc1ncnc2c1ncn2C1OC(COS(N)(=O)=O)C(O)C1O` (stereo not drawn) was tested, and the GI50 was 0.0021 µM and 0.0201 µM.

`CCOC(=O)Nc1nc2ccccc2[nH]1` was tested, and the TGI was > 89.9 µM and 9.09 µM.
In the case of `CS(=O)(=O)Nc1cc(-c2ccc3ncnc(Nc4ccc(F)c(Cl)c4)c3c2)cnc1Cl`, the TGI is reported as 1.29 µM and 1.02 µM.
`Nc1ncnc2c1ncn2C1OC(COS(N)(=O)=O)C(O)C1O` (stereo not drawn) was tested, and the TGI was 0.00465 µM and 0.0422 µM.
